pIC50: −log10 of the molar value. Where “and” joins values, the source holds several entries; their conditions need not be identical. Equal values may be shown once.
Test system: 242566-281-R-J2-PDC complex spheroid viability
Assay: Anticancer human tumor 242566-281-R-J2-PDC patient-derived pancreatic carcinoma cell line growth inhibition [CLK]
Settings: for viability, T/C: stronger effect = lower value
Summary of the method: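 Patient-derived tumor cells grown as complex spheroids with HUVEC endothelial cells and mesenchymal stem cells, treated with drug combinations. Concentrations descend in half-log steps from near clinical Cmax, or from 10 microM if Cmax unknown.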

[1] = curve of first compound, second compound 0.0316 µM
[2] = curve of first compound, second compound 0.1 µM
[3] = curve of first compound, second compound 0.316 µM
[4] = curve of first compound, second compound 1 µM
[5] = curve of first compound, second compound 3.16 µM
[6] = curve of first compound, second compound 10 µM
[7] = second compound 0.0316 µM, first compound 0.0316 µM
[8] = second compound 0.0316 µM, first compound 0.1 µM
[9] = second compound 0.0316 µM, first compound 0.316 µM
[10] = second compound 0.0316 µM, first compound 1 µM
[11] = second compound 0.0316 µM, first compound 3.16 µM
[12] = second compound 0.0316 µM, first compound 10 µM
[13] = second compound 0.1 µM, first compound 0.0316 µM
[14] = second compound 0.1 µM, first compound 0.1 µM
[15] = second compound 0.1 µM, first compound 0.316 µM
[16] = second compound 0.1 µM, first compound 1 µM
[17] = second compound 0.1 µM, first compound 3.16 µM
[18] = second compound 0.1 µM, first compound 10 µM
[19] = second compound 0.316 µM, first compound 0.0316 µM
[20] = second compound 0.316 µM, first compound 0.1 µM
[21] = second compound 0.316 µM, first compound 0.316 µM
[22] = second compound 0.316 µM, first compound 1 µM
[23] = second compound 0.316 µM, first compound 3.16 µM
[24] = second compound 0.316 µM, first compound 10 µM
[25] = second compound 1 µM, first compound 0.0316 µM
[26] = second compound 1 µM, first compound 0.1 µM
[27] = second compound 1 µM, first compound 0.316 µM
[28] = second compound 1 µM, first compound 1 µM
[29] = second compound 1 µM, first compound 3.16 µM
[30] = second compound 1 µM, first compound 10 µM
[31] = second compound 3.16 µM, first compound 0.0316 µM
[32] = second compound 3.16 µM, first compound 0.1 µM
[33] = second compound 3.16 µM, first compound 0.316 µM
[34] = second compound 3.16 µM, first compound 1 µM
[35] = second compound 3.16 µM, first compound 3.16 µM
[36] = second compound 3.16 µM, first compound 10 µM
[37] = second compound 10 µM, first compound 0.0316 µM
[38] = second compound 10 µM, first compound 0.1 µM
[39] = second compound 10 µM, first compound 0.316 µM
[40] = second compound 10 µM, first compound 1 µM
[41] = second compound 10 µM, first compound 3.16 µM
[42] = second compound 10 µM, first compound 10 µM
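Note: spheroids exposed to compounds for 7 days before readout.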
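Throughout, for viability, T/C: 100% = DMSO vehicle control wells.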

CC1COCCN1c1cc(C2(S(C)(=N)=O)CC2)nc(-c2ccnc3[nH]ccc23)n1 (configuration not stated) + CNC(=O)c1ccc(Nc2nc(OC3CCCC3)c3c(-c4ccc5nc(C)oc5c4)c[nH]c3n2)c(OC)c1
pIC50 [1]: < 5.00
pIC50 [2]: < 5.00
pIC50 [3]: 5.15
pIC50 [4]: 6.12
pIC50 [5]: 6.72
pIC50 [6]: 7.21
viability, T/C [7]: 89%
viability, T/C [8]: 105%
viability, T/C [9]: 117%
viability, T/C [10]: 118%
viability, T/C [11]: 92.2%
viability, T/C [12]: 61%
viability, T/C [13]: 84.7%
viability, T/C [14]: 90.1%
viability, T/C [15]: 91.6%
viability, T/C [16]: 104%
viability, T/C [17]: 93%
viability, T/C [18]: 55.6%
viability, T/C [19]: 76.8%
viability, T/C [20]: 77.8%
viability, T/C [21]: 80.3%
viability, T/C [22]: 70.8%
viability, T/C [23]: 71%
viability, T/C [24]: 41.7%
viability, T/C [25]: 73.9%
viability, T/C [26]: 69.7%
viability, T/C [27]: 55.1%
viability, T/C [28]: 49.4%
viability, T/C [29]: 34.3%
viability, T/C [30]: 17.7%
viability, T/C [31]: 55.2%
viability, T/C [32]: 55.1%
viability, T/C [33]: 46.9%
viability, T/C [34]: 36.2%
viability, T/C [35]: 24.6%
viability, T/C [36]: 13.4%
viability, T/C [37]: 52.5%
viability, T/C [38]: 47.1%
viability, T/C [39]: 43.8%
viability, T/C [40]: 33.2%
viability, T/C [41]: 22.1%
viability, T/C [42]: 13.5%

CC(=O)O[C@H]1C(=O)[C@@]2(C)[C@H]([C@H](OC(=O)c3ccccc3)[C@]3(O)C[C@H](OC(=O)[C@H](O)[C@@H](NC(=O)c4ccccc4)c4ccccc4)C(C)=C1C3(C)C)[C@]1(OC(C)=O)CO[C@@H]1C[C@@H]2O
viability, T/C (compound 0.0316 µM): 34.2% and 57.7%
viability, T/C (compound 0.1 µM): 33.9% and 45%
viability, T/C (compound 0.316 µM): 28.5% and 35.4%
viability, T/C (compound 1 µM): 23.9% and 38.6%
viability, T/C (compound 3.16 µM): 32.5% and 40%
viability, T/C (compound 10 µM): 34.1% and 56.3%
pIC50 (curve of compound): > 7.50 and 7.22

CCc1c2c(nc3ccc(O)cc13)-c1cc3c(c(=O)n1C2)COC(=O)[C@]3(O)CC + CN1CCN(c2cc(C(=O)Nc3cc4cc(-c5cnn(C)c5)ccc4cn3)ccn2)CC1
pIC50 [1]: 8.05
pIC50 [2]: 8.39
pIC50 [3]: > 8.50
pIC50 [4]: > 8.50
pIC50 [5]: > 8.50
pIC50 [6]: > 8.50
viability, T/C (second compound 0.0316 µM, first compound 0.00316 µM): 75.4%
viability, T/C (second compound 0.0316 µM, first compound 0.01 µM): 47.6%
viability, T/C [7]: 17.3%
viability, T/C [8]: 8.08%
viability, T/C [9]: 4.41%
viability, T/C [10]: 2.2%
viability, T/C (second compound 0.1 µM, first compound 0.00316 µM): 57%
viability, T/C (second compound 0.1 µM, first compound 0.01 µM): 26.9%
viability, T/C [13]: 9.57%
viability, T/C [14]: 5.51%
viability, T/C [15]: 3.73%
viability, T/C [16]: 1.87%
viability, T/C (second compound 0.316 µM, first compound 0.00316 µM): 13.3%
viability, T/C (second compound 0.316 µM, first compound 0.01 µM): 7.58%
viability, T/C [19]: 4.52%
viability, T/C [20]: 2.86%
viability, T/C [21]: 1.79%
viability, T/C [22]: 1.15%
viability, T/C (second compound 1 µM, first compound 0.00316 µM): 3.62%
viability, T/C (second compound 1 µM, first compound 0.01 µM): 3.2%
viability, T/C [25]: 2.53%
viability, T/C [26]: 2.3%
viability, T/C [27]: 1.39%
viability, T/C [28]: 1.39%
viability, T/C (second compound 3.16 µM, first compound 0.00316 µM): 5.73%
viability, T/C (second compound 3.16 µM, first compound 0.01 µM): 5.04%
viability, T/C [31]: 3.5%
viability, T/C [32]: 3.24%
viability, T/C [33]: 2.82%
viability, T/C [34]: 1.82%
viability, T/C (second compound 10 µM, first compound 0.00316 µM): 1.17%
viability, T/C (second compound 10 µM, first compound 0.01 µM): 0.88%
viability, T/C [37]: 0.45%
viability, T/C [38]: 0.5%
viability, T/C [39]: 0.49%
viability, T/C [40]: 0.31%

CCc1c2c(nc3ccc(O)cc13)-c1cc3c(c(=O)n1C2)COC(=O)[C@]3(O)CC
viability, T/C (compound 0.00316 µM): 87.2% and 108%
viability, T/C (compound 0.01 µM): 56.3% and 60%
viability, T/C (compound 0.0316 µM): 30.8% and 39%
viability, T/C (compound 0.1 µM): 12.3% and 15.7%
viability, T/C (compound 0.316 µM): 5.72% and 5.99%
viability, T/C (compound 1 µM): 2.95% and 2.38%
pIC50 (curve of compound): 7.87 and 7.77

COC1C=CCC(C)C(C)S(=O)(=O)NC(=O)c2ccc3c(c2)N(CC2CCC21)CC1(CCCc2cc(Cl)ccc21)CO3 (configuration not stated) + CNC(=O)c1ccc(Nc2nc(OC3CCCC3)c3c(-c4ccc5nc(C)oc5c4)c[nH]c3n2)c(OC)c1
pIC50 [1]: 5.28
pIC50 [2]: 5.21
pIC50 [3]: 6.39
pIC50 [4]: 6.86
pIC50 [5]: > 7.50
pIC50 [6]: > 7.50
viability, T/C [7]: 95.8%
viability, T/C [8]: 91.9%
viability, T/C [9]: 72%
viability, T/C [10]: 84.9%
viability, T/C [11]: 67.5%
viability, T/C [12]: 29.1%
viability, T/C [13]: 94.7%
viability, T/C [14]: 74.8%
viability, T/C [15]: 65.4%
viability, T/C [16]: 84.3%
viability, T/C [17]: 91.4%
viability, T/C [18]: 26.8%
viability, T/C [19]: 84.9%
viability, T/C [20]: 64.7%
viability, T/C [21]: 50.6%
viability, T/C [22]: 42.3%
viability, T/C [23]: 39.1%
viability, T/C [24]: 25.9%
viability, T/C [25]: 64.9%
viability, T/C [26]: 55.3%
viability, T/C [27]: 38.5%
viability, T/C [28]: 29.1%
viability, T/C [29]: 25.6%
viability, T/C [30]: 19.6%
viability, T/C [31]: 49.6%
viability, T/C [32]: 40.1%
viability, T/C [33]: 30.7%
viability, T/C [34]: 20.8%
viability, T/C [35]: 18.1%
viability, T/C [36]: 14.2%
viability, T/C [37]: 42.9%
viability, T/C [38]: 41.2%
viability, T/C [39]: 30.8%
viability, T/C [40]: 18.3%
viability, T/C [41]: 13.5%
viability, T/C [42]: 12.1%

C=CC(=O)Nc1cc(Nc2nccc(-c3cn(C)c4ccccc34)n2)c(OC)cc1N(C)CCN(C)C
viability, T/C (compound 0.000949 µM): 98.9% and 87.5%
viability, T/C (compound 0.003 µM): 97.1% and 95.4%
viability, T/C (compound 0.00949 µM): 94.8% and 88.7%
viability, T/C (compound 0.03 µM): 95.2% and 96.2%
viability, T/C (compound 0.0949 µM): 95.1% and 107%
viability, T/C (compound 0.3 µM): 69.7% and 97.1%
pIC50 (curve of compound): < 6.52

Source: PubChem BioAssay AID2060622 (Molecular Pharmacology Branch, DTP, NCI, 2025)
